Patent US7572949B2, “SKN-1 and GSK-3 genes and proteins” (Immune Disease Institute, Inc., priority 2003, dated 2009)

How the values were obtained:
[1] = system: SKN-1::GFP; test: Accumulation of SKN-1::GFP in intestinal nuclei in response to oxidative stress (skn-1::gfp transgenic worms); assay type: in vivo, C. elegans
Method: To create transgenic skn-1::gfp strains, 2.5, 10, or 50 ng/μl of transgene DNA (FIG. 5A) was injected into N2 animals at along with 100 ng/μl of pRF4 to generate extrachromosomal transgenic lines. Two different extrachromosomal arrays, Ex001 and Ex007, generated with 2.5 and 10 ng/μl of SKN-1::GFP, respectively, were integrated into the chromosome by UV irradiation (400 J/m2) to produce the insertion strains Is001 and Is007, respectively. To rescue the embryonic lethality of a skn-1 mutation, SKN-1::GFP was injected into skn-1(zu67)/DnT1 animals at 2.5 ng/μl with 100 ng/μl of the pRF4 marker. […] To analyze expression and localization of SKN-1::GFP in response to oxidative stress, skn-1::gfp transgenic worms were treated as described above for the gcs-1::gfp expression studies. […] These worms were scored for presence of SKN-1::GFP in intestinal nuclei 5 minutes later. […] To discriminate intestinal autofluorescence from SKN-1::GPP epifluorescence, a triple band emission filter set (Chroma 61000) was used in conjunction with a narrow band excitation filter (484/14 nm). This combination allowed autofluorescence to be detected as yellow/orange fluorescence deriving from a combined green and red signal, while GFP remained green. Worms that carried skn-1::gfp, gcs-1::gfp and gcs-1::gfp mutant transgenes were incubated with 50 μg/ml DiI (Molecular Probes) in M9 for 3 hours at 20° C., then transferred to fresh plates for 1 hour to destain, and examined under the fluorescence microscope. The ASI chemosensory neurons were identified by according to their intensity of DiI labeling and location relative to other DiI-labeled cells.

[2] = system: GCS-1::GFP expression in the intestine; test: Induction of GCS-1::GFP expression in the intestine by oxidative stress (transgenic worms, fluorescence microscopy); assay type: in vivo, C. elegans; details: for percentage of animals with high intestinal GCS-1::GFP expression / percentage of animals with low intestinal GCS-1::GFP expression / percentage of animals with medium intestinal GCS-1::GFP expression: 1 mM paraquat in the agar, 20° C., 3 days, mixed L2-young adult worms
Method: Transgenic strains were generated by injecting DNA into the gonad of young adult animals as described in Mello et al. (EMBO Journal 10: 3959-3970 (1991)). gcs-1::gfp transgene constructs (FIG. 3A) were injected at 50 ng/μl along with the rol-6 marker (pRF4) at 100 ng/μl. Between three and six independent extrachromosomal lines were generated and analyzed for each gcs-1::gfp construct. To investigate GCS-1::GFP expression in the skn-1(zu67) background, rol-6-marked gcs-1::gfp hermaphrodites were mated with N2 males, then their transgenic progeny were crossed with skn-1(zu67)/DnT1 hermaphrodites, which have an unc phenotype. After transgenic males were successively crossed twice with skn-1(zu67)/DnT1 hermaphrodites, unc; rol F3 hermaphrodite progeny were selected. From this population, skn-1(zu67)/DnT1; gcs-1::gfp animals were identified on the basis of their non-unc; rol progeny laying dead eggs. Two different gcs-1:gfp lines were thereby crossed into the skn-1(zu67) background and examined for GFP expression. DIC and fluorescence images were acquired with a Zeiss AxioSKOP2 microscope and AxioCam cooled color digital camera.
To investigate expression of gcs-1::gfp and mutant transgenes, worms were exposed to oxidative stress under the following conditions. For heat shock, worms cultured at 20° C. were transferred onto prewarmed seeded plates and incubated at 29° C. for 20 hours, then examined by fluorescence microscopy for GFP expression. gcs-1::gfp induction was also observed in an alternative heat treatment protocol, during which worms cultured at 20° C. were transferred onto prewarmed plates and incubated at 34° C. for 2 to 4 hours, then returned to 20° C. and examined for GFP expression hourly during a four hour recovery period. In the experiments described in Table 2, young adults were transferred to plates that contained 1 mM paraquat in the agar and maintained at 20° C. for 3 days prior to analysis. In an alternative induction protocol, worms that carried gcs-1::gfp or the mutant transgenes shown in FIG. 3A were incubated in M9 either with or without 100 mM paraquat for 30 minutes, then allowed to recover on plates for four hours.

[3] = system: C. elegans pathway mediated by SKN-1; details: in vivo
[4] = 2 mM, immobilization for photography, during the times examined (data not shown)
[5] = paraquat, treated as for the gcs-1::gfp studies, mixed-stage L2-young adult worms

## c1ccc([C@H]2CN3CCSC3=N2)cc1 [Levamisole]
[1]; [4]
  SKN-1::GFP relocalization by immobilization agent: did not stimulate
[2]; [4]
  GCS-1::GFP induction by immobilization agent: did not stimulate

## C[n+]1ccc(-c2cc[n+](C)cc2)cc1 [Paraquat, paraquat (methyl viologen)]
[1]; ASI neurons, after exposure to paraquat
  SKN-1::GFP in the ASI neurons after exposure: neither the location nor intensity of SKN-1::GFP was detectably altered
[1]; in a high percentage of animals, particularly anteriorly and posteriorly, after exposure to paraquat
  SKN-1::GFP in intestinal cell nuclei after exposure: elevated levels of SKN-1::GFP
[1]; [5]
  percentage of animals with high SKN-1::GFP in intestinal nuclei: 3.1%
  percentage of animals with low SKN-1::GFP in intestinal nuclei: 53.1%
  percentage of animals with medium SKN-1::GFP in intestinal nuclei: 43.8%
[2]; 100 mM paraquat in M9 for 30 minutes, four hours recovery on plates
  intestinal gcs-1::gfp expression, alternative induction protocol: induction of intestinal gcs-1::gfp expression
[2]; gcs-1::gfp transgene
  percentage of animals with high intestinal GCS-1::GFP expression: 18.4%
  percentage of animals with low intestinal GCS-1::GFP expression: 14.5%
  percentage of animals with medium intestinal GCS-1::GFP expression: 67.1%
[2]; gcsΔ2::gfp transgene
  percentage of animals with high intestinal GCS-1::GFP expression: 13.1%
  percentage of animals with low intestinal GCS-1::GFP expression: 21.3%
  percentage of animals with medium intestinal GCS-1::GFP expression: 65.6%
[2]; skn-1 homozygotes, after paraquat treatment (data not shown)
  GCS-1::GFP in the intestine and ASI neurons of skn-1 homozygotes: absence of GCS-1::GFP

## [N-]=[N+]=[N-] [Sodium Azide, sodium azide]
[1]; in vivo
  percentage of animals with high SKN-1::GFP in intestinal nuclei: 55.0%
  percentage of animals with low SKN-1::GFP in intestinal nuclei: 0.8%
  percentage of animals with medium SKN-1::GFP in intestinal nuclei: 44.2%

## C[S+]([O-])CCCCN=C=S (stereo not shown) [sulforaphane]
[3]
  response of the SKN-1-mediated pathway: responds
